Measurements reported in US20230241088A1, “COMPOSITION FOR PREVENTING OR TREATING LUNG CANCER COMPRISING ORTHO-TOPOLIN RIBOSIDE AS ACTIVE INGREDIENT” (CHUNG-ANG UNIVERSITY INDUSTRY-ACADEMY COOPERATION FOUNDATION, priority 2022, published 2023).

Tests used:
Format in all cases: cell-based, Human
[1] = system: HCC827; test: MTT cell viability assay, HCC827
Protocol: (§1) Human NSCLC cell lines A549, H1437, H2087, H522, and HCC827 were obtained from the Korean Cell Line Bank (KCLB, Seoul, Korea). These cells were cultured in RPMI-1640 medium (Gibco, N.Y., USA) supplemented with 10% FBS (Gibco) and 1% penicillin-streptomycin (HyClone Laboratories, Logan, Utah, USA). All cell lines were cultured under standard conditions (5% CO2, humid environment, 37° C.). A549 cells were seeded at a density of 1×10^4 cells/well and H1437, H2087, H522, HCC827, and MRCS cells at a density of 2×10^4 cells/well in 96-well plates and were cultured until cells reach approximately 70-80% confluency. The NSCLC cells were treated with plant hormones for 48 hours. Stock solution of each plant hormone was diluted with culture medium, wherein concentrations of DMSO, water, methanol, and ethanol in the culture medium were below 1% (v/v). The half-maximal inhibitory concentration (IC50) was calculated using CompuSyn software (ComboSyn Inc., Paramus, N.J., USA).
(§2) The inhibitory effect of plant hormones and their derivatives was investigated on 5 NSCLC cell lines (A549, H1437, H2087, H522, and HCC827). The NSCLC cells were treated with ABA, Cor, ethephon, GR-24, IAA, KR, MJ, N6b, N6i, oTR, and SS-HCS at concentrations of 0.1, 0.5, 1, 5, 10, 50, and 100 μM. Cell viability and IC50 values for 48 hours were investigated by performing the MTT assay.

[2] = system: H2087; test: MTT cell viability assay, H2087
Protocol: as §1, §2

[3] = system: A549; test: MTT cell viability assay, A549
Protocol: as §1, §2

[4] = system: H522; test: MTT cell viability assay, H522
Protocol: as §1, §2

[5] = system: H1437; test: MTT cell viability assay, H1437
Protocol: as §1, §2

[6] = system: NSCLC cells; test: MTT cell viability assay, NSCLC cells overall; conditions: Homo sapiens; 48 hours, MTT assay, 5 NSCLC cell lines
Protocol: as §1, §2

[7] = Homo sapiens, NCI-H2087, 48 hours
[8] = Homo sapiens, NCI-H522, 48 hours
[9] = Homo sapiens, NCI-H1437, 48 hours

Compound | IC50 ([1]; 48 hours) [µM] | IC50 ([2]; 48 hours) [µM] | IC50 ([3]; 48 hours) [µM] | IC50 ([4]; 48 hours) [µM] | IC50 ([5]; 48 hours) [µM] | IC50 ([1]; Homo sapiens, HCC827, 48 hours) [µM] | IC50 [2, 7] [µM] | IC50 ([3]; Homo sapiens, A549, 48 hours) [µM] | IC50 [4, 8] [µM] | IC50 [5, 9] [µM] | IC50 [6] [µM]
CC[C@@H](C(C)C)[C@@H](O)[C@H](O)[C@@H](C)[C@H]1CC[C@H]2[C@@H]3CC(=O)[C@H]4C[C@H](O)[C@H](O)C[C@]4(C)[C@H]3CC[C@]12C [SS-HCS, SS-homocastasterone] | 72.3 ± 13.6 | 85.4 ± 8.81 | 87.5 ± 15.5 | > 100 | 34.7 ± 2.04 |  |  |  |  |  | 
CC/C=C\CC1C(=O)CCC1CC(=O)OC (stereo not shown) [MJ, methyl jasmonate] |  |  |  |  |  | > 100 | > 100 | > 100 | > 100 | > 100 | 
CC1=CC(=O)CC(C)(C)[C@@]1(O)/C=C/C(C)=C\C(=O)O [ABA, abscisic acid] |  |  |  |  |  | > 100 | > 100 | > 100 | > 100 | > 100 | 
CC[C@H]1C=C(C(=O)N[C@@]2(C(=O)O)C[C@@H]2CC)[C@H]2CCC(=O)[C@H]2C1 [Cor, coronatine] | > 100 | > 100 | > 100 | > 100 | > 100 |  |  |  |  |  | 
CC1=C[C@H](O/C=C2/C(=O)O[C@@H]3c4ccccc4C[C@H]23)OC1=O [GR-24, Gerald Rosebery-24] | > 100 | > 100 | > 100 | > 100 | > 100 |  |  |  |  |  | 
O=P(O)(O)CCCl [Ethephon, ethephon] |  |  |  |  |  | > 100 | > 100 | > 100 | > 100 | > 100 | 
OC[C@H]1O[C@@H](n2cnc3c(NCc4ccco4)ncnc32)[C@H](O)[C@@H]1O [KR, Kinetin riboside] |  |  |  |  |  | 33.13 ± 0.14 | 98.5 ± 6.72 | 12.3 ± 1.42 | 73 ± 10.9 | 76.8 ± 13.7 | < 100
OC[C@H]1O[C@@H](n2cnc3c(NCc4ccccc4)ncnc32)[C@H](O)[C@@H]1O [N^6b, N^6-benzyladenosine, reference compound] |  |  |  |  |  |  |  |  |  |  | < 100
